From the Deep4Chem optical property database
Where “and” joins values, the source holds several entries; their conditions need not be identical. Equal entries are not always repeated. Blank lines part the entries; values can stand above or below the compound they belong to.

Test: photoluminescence quantum yield (fraction); solvent given as SMILES

Compound: COc1c(-c2ccc(N(C)C)cc2)oc2ccccc2c1=O
photoluminescence quantum yield (in C1CCCCC1): 0.048 | photoluminescence quantum yield (in C1CCOC1): 0.88 | photoluminescence quantum yield (in CC#N): 0.69 | photoluminescence quantum yield (in CO): 0.021

Compound: COc1ccc(-c2ccc(OC)cc2)cc1
photoluminescence quantum yield (in C1CCCCC1): 0.31

Compound: CC1=[N+]2C(=C(c3ccc(N(C)C)cc3)c3ccc(C)n3[B-]2(F)F)C=C1
photoluminescence quantum yield (in C1CCCCC1): 0.37 | photoluminescence quantum yield (in CC#N): 0.008 | photoluminescence quantum yield (in CC(=O)C(C)(C)C): 0.024 | photoluminescence quantum yield (in CC(C)=O): 0.006 | photoluminescence quantum yield (in CCCCCC): 0.376 | photoluminescence quantum yield (in CO): 0.03 | photoluminescence quantum yield (in Cc1ccccc1): 0.15 | photoluminescence quantum yield (in ClC(Cl)Cl): 0.058

Compound: CCC1(CC)c2cc(C=O)ccc2-c2ccc(N(C)C)cc21
photoluminescence quantum yield (in C1CCCCC1): 0.02 | photoluminescence quantum yield (in CC#N): 0.81 | photoluminescence quantum yield (in CCO): 0.64 | photoluminescence quantum yield (in CCOCC): 0.71 | photoluminescence quantum yield (in CS(C)=O): 0.92 | photoluminescence quantum yield (in ClCCl): 0.91 | photoluminescence quantum yield (in c1ccccc1): 0.82

Compound: C(=C1c2ccccc2CCc2ccccc21)c1ccc(-c2ccc(C=C3c4ccccc4CCc4ccccc43)cc2)cc1
photoluminescence quantum yield (in C1CCOC1): 0.0033

Compound: N#Cc1cccc2c(N)c(-c3nn([C@H]4C[C@H](O)[C@@H](CO)O4)c4ncnc(N)c34)ccc12
photoluminescence quantum yield (in C1COCCO1): 0.47 | photoluminescence quantum yield (in CC#N): 0.23 | photoluminescence quantum yield (in CC(C)O): 0.19 | photoluminescence quantum yield (in CCO): 0.13 | photoluminescence quantum yield (in CCOC(C)=O): 0.29 | photoluminescence quantum yield (in CN(C)C=O): 0.21 | photoluminescence quantum yield (in CO): 0.07 | photoluminescence quantum yield (in CS(C)=O): 0.18 | photoluminescence quantum yield (in OCC(O)CO): 0.12 | photoluminescence quantum yield (in OCCO): 0.08

Compound: CN(C)c1ccc2cc(C3=[O+][B-](F)(F)OC(c4ccccc4)=C3)ccc2c1
photoluminescence quantum yield (in C1CCOC1): 0.1 | photoluminescence quantum yield (in CC#N): 0.007 | photoluminescence quantum yield (in CC(C)=O): 0.01 | photoluminescence quantum yield (in CS(C)=O): 0.005 | photoluminescence quantum yield (in Cc1ccccc1): 0.97 | photoluminescence quantum yield (in ClC(Cl)Cl): 0.9 | photoluminescence quantum yield (in ClCCl): 0.13

Compound: CCCCCn1c2cc(/C=C/c3ccc(N(c4ccccc4)c4ccccc4)cc3)ccc2c2ccc(/C=C/c3ccc(N(c4ccccc4)c4ccccc4)cc3)cc21
photoluminescence quantum yield (in Cc1ccccc1): 0.81

Compound: O=C1/C(=C\c2ccc(N(c3ccccc3)c3ccccc3)cc2)S(=O)(=O)c2ccccc21
photoluminescence quantum yield (in C1CCOC1): 0.037 | photoluminescence quantum yield (in C1COCCO1): 0.324 | photoluminescence quantum yield (in CC#N): 0.002 | photoluminescence quantum yield (in CC(C)=O): 0.003 | photoluminescence quantum yield (in CCOC(C)=O): 0.036 | photoluminescence quantum yield (in CN(C)C=O): 0.024 | photoluminescence quantum yield (in CO): 0.021 | photoluminescence quantum yield (in CS(C)=O): 0.032 | photoluminescence quantum yield (in Cc1ccccc1): 0.559 | photoluminescence quantum yield (in ClC(Cl)Cl): 0.142 | photoluminescence quantum yield (in ClCCl): 0.022

Compound: CC1(C)c2ccccc2N(c2ccc3c(c2)C2(c4cc(N5c6ccccc6C(C)(C)c6ccccc65)ccc4-3)c3ccccc3S(=O)(=O)c3ccccc32)c2ccccc21
photoluminescence quantum yield (in c1ccc2c(c1)c1ccccc1n2-c1ccc(N(c2ccc(-n3c4ccccc4c4ccccc43)cc2)c2ccc(-n3c4ccccc4c4ccccc43)cc2)cc1): 0.41

Compound: COc1ccccc1CC(=O)OCc1c(C)c(=O)n2c(=O)c(C)c(C)n12
photoluminescence quantum yield (in CCO): 0.636

Compound: CCCCCCc1ccc(-n2c3[n+](c4c5ccccc5c5ccccc5c42)[B-](C)(C)c2ccccc2-3)cc1
photoluminescence quantum yield (in C1CCOC1): 0.45 | photoluminescence quantum yield (in CC#N): 0.28 | photoluminescence quantum yield (in Cc1ccccc1): 0.46 | photoluminescence quantum yield (in ClCCl): 0.38

Compound: CC(C)(C)c1ccc2c(c1)c1cc(C(C)(C)C)ccc1n2-c1nc2ccccc2nc1-n1c2ccc(C(C)(C)C)cc2c2cc(C(C)(C)C)ccc21
photoluminescence quantum yield (in Cc1ccccc1): 0.32

Compound: C[Si](C)(C)C#Cc1ccc(C#C[Si](C)(C)C)c2ccccc12
photoluminescence quantum yield (in C1CCCCC1): 0.85

Compound: CCN(CC)c1ccc2cc(/C=C/c3ccccc3)c(=O)oc2c1
photoluminescence quantum yield (in CC#N): 0.85

Compound: COc1ccc2n1[B-](F)(F)[N+]1=CC=CC1=C2c1ccccc1
photoluminescence quantum yield (in CC#N): 0.02 | photoluminescence quantum yield (in CCCCCC): 0.01 | photoluminescence quantum yield (in CCOC(C)=O): 0.01 | photoluminescence quantum yield (in CO): 0.02 | photoluminescence quantum yield (in ClCCl): 0.02

Compound: CCCCn1c(-c2ccc(-c3nnc(-c4cccs4)o3)cc2)nc2c3ccccc3c3ccccc3c21
photoluminescence quantum yield (in ClCCl): 0.62

Compound: CCN(CC)c1ccc(-c2ccc(-c3nc4ccccc4c(=O)[nH]3)s2)cc1
photoluminescence quantum yield (in CC#N): 0.28 | photoluminescence quantum yield (in Cc1ccccc1): 0.71

Compound: Oc1ccc2ccccc2c1/C=N/CC/N=C/c1c(O)ccc2ccccc12
photoluminescence quantum yield (in CC#N): 0.12

Compound: CCCCN1C(=O)c2cccc3c(C#CC#Cc4ccc5c6c(cccc46)C(=O)N(CCCC)C5=O)ccc(c23)C1=O
photoluminescence quantum yield (in ClCCl): 0.81

Compound: COc1ccccc1C1=[N+]2C(=C(c3ccc(I)cc3)c3ccc(-c4ccccc4OC)n3[B-]2(F)F)C=C1
photoluminescence quantum yield (in ClC(Cl)Cl): 0.08 and 0.07

Compound: Cc1cc(C)c(B(c2cc(-c3ccc(C(F)(F)F)cc3)sc2-c2sc(-c3ccc(C(F)(F)F)cc3)cc2P(=O)(c2ccccc2)c2ccccc2)c2c(C)cc(C)cc2C)c(C)c1
photoluminescence quantum yield (in CO): 0.41

Compound: Cc1cc(C)c(B(c2ccc(-c3ccc4ccc5cccc6ccc3c4c56)cc2)c2c(C)cc(C)cc2C)c(C)c1
photoluminescence quantum yield (in Cc1ccccc1): 0.61

Compound: F[B-]1(F)n2c(-c3ccccc3)cc(-c3cccs3)c2N=C2C(c3cccs3)=CC(c3ccccc3)=[N+]21
photoluminescence quantum yield (in ClCCl): 0.1

Compound: CCOC(=O)C1=C(N)n2c(=O)c3ccccc3c(=O)n2C1c1ccc(C)cc1 (stereo unspecified)
photoluminescence quantum yield (in CS(C)=O): 0.063

Compound: Nc1cccc2cc3ccccc3cc12
photoluminescence quantum yield (in C1CCCCC1): 0.8

Compound: c1ccc2cc3cnccc3cc2c1
photoluminescence quantum yield (in CCO): 0.6

Compound: CN(C)c1ccc(C(=O)Nc2ccccc2)cc1
photoluminescence quantum yield (in C1CCCCC1): 0.0011 | photoluminescence quantum yield (in C1CCOC1): 0.0061 | photoluminescence quantum yield (in CC#N): 0.0107 | photoluminescence quantum yield (in CCOCC): 0.0036

Compound: Fc1ccc(N(c2ccccc2)c2ccc3ccc4c(N(c5ccccc5)c5ccc(F)cc5)ccc5ccc2c3c54)cc1
photoluminescence quantum yield (in ClCCl): 0.8

Compound: CCC1=C(C2=C(C3=C(CC)S(=O)(=O)c4cc(-c5ccc(C)s5)ccc43)C(F)(F)C(F)(F)C2(F)F)c2ccc(-c3ccc(C)s3)cc2S1(=O)=O
photoluminescence quantum yield (in C1COCCO1): 0

Compound: c1ccc(-c2cc(-c3ccccc3)cc(-c3ccc4c(c3)C3(c5cc(-c6cc(-c7ccccc7)cc(-c7ccccc7)c6)ccc5-4)c4ccccc4-c4c3c3c5ccccc5ccc3c3ccccc43)c2)cc1
photoluminescence quantum yield (in Cc1ccccc1): 0.59

Compound: COc1ccc(C2=C/C(=C\c3ccc(C#N)cc3)C(=O)N2)cc1OC
photoluminescence quantum yield (in C1COCCO1): 0.188

Second part, the compound after the results:

photoluminescence quantum yield (in CC#N): 0.25 | photoluminescence quantum yield (in CCO): 0.12 | photoluminescence quantum yield (in CO): 0.06 | photoluminescence quantum yield (in O): 0.02
Compound: CCCC(=O)c1c2c(c(C(=O)CCC)c3c1OC(CC(=O)OC)(C(=O)O)O3)OCO2

photoluminescence quantum yield (in ClC(Cl)Cl): 0.026
Compound: F[B-]1(F)OC(c2ccc(C(F)(F)F)cc2)=Cc2c3ccccc3cc[n+]21

photoluminescence quantum yield (in CCO): 0.44
Compound: Nc1cc2oc3cc(O)c(F)cc3c(=O)c2cc1F

photoluminescence quantum yield (in CS(C)=O): 0.03
Compound: CCCCN1/C(=C/C=C/C2=[N+](C)c3ccccc3C2(C)C)C(C)(C)c2cc(OC)ccc21

photoluminescence quantum yield (in CC1CCCCC1): 0.58 | photoluminescence quantum yield (in CC#N): 0.79 | photoluminescence quantum yield (in CO): 0.81
Compound: COC(=O)C(NC(=O)OC(C)(C)C)c1ccc2oc(-c3cc(OC)c(OC)cc3OC)nc2c1 (stereo unspecified)

photoluminescence quantum yield (in CC#N): 0.24
Compound: COc1ccc2cc(/C=C/c3ccc([N+](=O)[O-])cc3)c(=O)oc2c1

photoluminescence quantum yield (in C1CCCCC1): 0.002 | photoluminescence quantum yield (in C1CCOC1): 0.009 | photoluminescence quantum yield (in CC#N): 0.004 | photoluminescence quantum yield (in CO): 0.002 | photoluminescence quantum yield (in CS(C)=O): 0.007 | photoluminescence quantum yield (in ClCCl): 0.004 | photoluminescence quantum yield (in O): 0.001
Compound: CC1=N/C(=C\c2ccccc2N)C(=O)N1C

photoluminescence quantum yield (in O): 0.09
Compound: CCN(CC)c1ccc2c(c1)C(C)(C)C(=O)C=C2

photoluminescence quantum yield (in C1CCOC1): 0.4
Compound: CCC1(CC)c2ccccc2-c2c1c1c(c3c2C(CC)(CC)c2cc(B(c4c(C)cc(C)cc4C)c4c(C)cc(C)cc4C)ccc2-3)C(CC)(CC)c2cc(B(c3c(C)cc(C)cc3C)c3c(C)cc(C)cc3C)ccc2-1

photoluminescence quantum yield (in C1CCCCC1): 0.094 | photoluminescence quantum yield (in CC#N): 0.0051 | photoluminescence quantum yield (in CCO): 0.00014 | photoluminescence quantum yield (in c1ccccc1): 0.063
Compound: CNc1cccc2c1-c1ccccc1C2=O

photoluminescence quantum yield (in C1CCOC1): 0.3
Compound: c1ccc(/C(=C(\c2ccccc2)c2cc(-c3ccccc3)ccc2-c2ccccc2)c2cc(-c3ccccc3)ccc2-c2ccccc2)cc1

photoluminescence quantum yield (in ClCCl): 0.32
Compound: CCCCNC(=O)c1sc(-c2ccc(-c3cc(-c4ccc(C(C)(C)C)cc4)c(C(=O)NCCCC)s3)s2)cc1-c1ccc(C(C)(C)C)cc1

photoluminescence quantum yield (in ClC(Cl)Cl): 0.957
Compound: Cc1ccc(-n2c3ccccc3c3cc(-c4ccc5[n+](c4)[B-](F)(F)n4c-5nc5c6ccccc6c6ccccc6c54)ccc32)cc1

photoluminescence quantum yield (in CC#N): 0
Compound: O=[N+]([O-])c1ccc(C#Cc2ccccc2C#Cc2ccc([N+](=O)[O-])cc2)cc1

photoluminescence quantum yield (in CCO): 0.36
Compound: C#Cc1ccc2cc(/C=C/C(=O)OCC)c(=O)oc2c1

photoluminescence quantum yield (in CS(C)=O): 0.06
Compound: Cn1c(=O)c(/N=N/c2cc(S(=O)(=O)O)ccc2C(=O)O)c(O)c2ccccc21

photoluminescence quantum yield (in CCO): 0.123 | photoluminescence quantum yield (in ClCCl): 0.164 | photoluminescence quantum yield (in O): 0.02
Compound: O=Cc1ccc(-c2cccc(-c3nc4ccccc4s3)c2O)s1

photoluminescence quantum yield (in CCO): 0.01
Compound: C#Cc1ccc2cc3c(C)cc(=O)oc3cc2c1

photoluminescence quantum yield (in C1CCCCC1): 0.59 | photoluminescence quantum yield (in CC1CCCCC1): 0.56 | photoluminescence quantum yield (in CC#N): 0.43 | photoluminescence quantum yield (in CCC(C)CC): 0.57 | photoluminescence quantum yield (in CCCCCC): 0.57 | photoluminescence quantum yield (in CCOC(C)=O): 0.47
Compound: CCN(CC)c1ccc2cc(-c3nc4ccccc4s3)c(=O)oc2c1

photoluminescence quantum yield (in ClCCl): 0.8
Compound: COc1ccc2c(c1)CCC1=C(C#Cc3ccccc3)O[B-](F)(F)[O+]=C12

photoluminescence quantum yield (in O): 0.95
Compound: O=C([O-])c1ccccc1-c1c2ccc(=O)cc-2oc2cc([O-])ccc12

photoluminescence quantum yield (in CCCCCCC): 0.14
Compound: c1cc2c3c(cccc3c1)-c1c-2ccc2ccc3ccccc3c12

photoluminescence quantum yield (in ClCCl): 0.1
Compound: Cc1ccc(C#Cc2c3cc4ccccc4cc3c(C#C[Si](C(C)C)(C(C)C)C(C)C)c3cc4ccccc4cc23)cc1

photoluminescence quantum yield (in CCCCCCC): 0.00078
Compound: c1ccc2c3c(ccc2c1)-c1cccc2cc4ccccc4c-3c12

photoluminescence quantum yield (in C1CCOC1): 0.45
Compound: CCCCCOc1cc2oc(=O)c3c4occc4c4ccc5cccc6c(c1)c2c3c4c56

photoluminescence quantum yield (in ClCCl): 0.018
Compound: C(S/C=C/c1ccc(/C=C/SC=C2CCCCCCC2)cc1)=C1CCCCCCC1
